This note sets out measurements from PubChem BioAssay (NCI).

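Method: 48-hour compound exposure of cells in 96-well plates, five concentrations, linear interpolation of endpoints. At the GI50, growth is halved. TGI: concentration producing complete growth inhibition.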

Test systems include BT-549 breast; CCRF-CEM leukemia; HCT-15 colon; HT29 colon; MCF7 breast; MDA-MB-435; PC-3 prostate; SF-539 CNS; SK-MEL-28 melanoma; T-47D breast.
Assay in all cases: NCI anticancer screen, dose series, 48 h

`COc1ccc2[nH]c(-c3ccccc3)c(C=C(C#N)C#N)c2c1`: the GI50 in the assay on BT-549 breast was 2.17 µM; with CCRF-CEM leukemia, 3.42 µM; in the assay on HCT-15 colon, 3.23 µM; in the assay on HT29 colon, 3.13 µM; with MCF7 breast, 2.16 µM; in the assay on MDA-MB-435 it was 0.607 µM. Further, the GI50 is 5.37 µM with PC-3 prostate, 2.94 µM in the assay on SF-539 CNS, 4.44 µM with SK-MEL-28 melanoma and 2.29 µM in the assay with T-47D breast. Also, the TGI with BT-549 breast was > 100 µM; in the assay on CCRF-CEM leukemia, > 100 µM; in the assay with HCT-15 colon, > 100 µM; in the assay with HT29 colon it was > 100 µM; in the assay on MCF7 breast, > 100 µM; with MDA-MB-435, 4.68 µM. The TGI in the assay with PC-3 prostate was > 100 µM; in the assay with SF-539 CNS, 22 µM; in the assay with SK-MEL-28 melanoma, > 100 µM; in the assay on T-47D breast it was 9.14 µM.

Regarding `CCOC(=O)/C(=C/c1ccccc1)C(=O)c1ccccc1`, the GI50 was 6.29 µM in the assay with BT-549 breast; 2.61 µM in the assay with CCRF-CEM leukemia; 2.97 µM with HCT-15 colon; 2.78 µM with HT29 colon; 3.13 µM in the assay on MCF7 breast; 2.96 µM in the assay with MDA-MB-435. The GI50 with PC-3 prostate was 4.6 µM; in the assay with SF-539 CNS it was 2.63 µM; in the assay with SK-MEL-28 melanoma it was 2.42 µM; with T-47D breast, 6.17 µM. Besides, the TGI in the assay on BT-549 breast was determined as 19.6 µM; in the assay on CCRF-CEM leukemia it was 9.44 µM; with HCT-15 colon, 11.2 µM; in the assay on HT29 colon, 5.8 µM; in the assay on MCF7 breast, 15.9 µM; with MDA-MB-435 it was 11.5 µM. Further, the TGI in the assay with PC-3 prostate was 22.7 µM; in the assay with SF-539 CNS, 7.8 µM; with SK-MEL-28 melanoma, 6.59 µM; in the assay with T-47D breast, 32.5 µM.

As for `COc1cc(-c2nc3ccccc3[nH]2)ccc1OCC(=O)N=Nc1c(O)[nH]c2ccc(Cl)cc12`, the GI50 is 1.98 µM in the assay on BT-549 breast; 0.5 µM in the assay with CCRF-CEM leukemia; 4.9 µM in the assay on HCT-15 colon; 1.62 µM in the assay with HT29 colon; 0.57 µM with MCF7 breast; 1.43 µM in the assay with MDA-MB-435. Besides, the GI50 is 1.48 µM in the assay with PC-3 prostate, 1.69 µM in the assay with SF-539 CNS, 1.81 µM in the assay on SK-MEL-28 melanoma and 1.66 µM in the assay on T-47D breast. Further, the TGI with BT-549 breast is 4.03 µM; in the assay with CCRF-CEM leukemia, 3.56 µM; in the assay with HCT-15 colon, > 100 µM; in the assay on HT29 colon, 3.48 µM; in the assay with MCF7 breast, 2.39 µM; with MDA-MB-435, 2.76 µM. The TGI in the assay with PC-3 prostate turned out to be 3.06 µM; with SF-539 CNS, 3.1 µM; in the assay on SK-MEL-28 melanoma, 3.22 µM; in the assay with T-47D breast, 3.75 µM.

Consider `CC(N)(Cc1c[nH]c2ccccc12)C(=O)O` (stereo not given), for which the GI50 with BT-549 breast, with CCRF-CEM leukemia, in the assay on HCT-15 colon, with HT29 colon, with MCF7 breast and in the assay with MDA-MB-435 was > 2500 µM each time. Besides, the GI50 in the assay with PC-3 prostate, in the assay with SF-539 CNS, in the assay on SK-MEL-28 melanoma and in the assay on T-47D breast was > 2500 µM throughout. The TGI in the assay on BT-549 breast, in the assay on CCRF-CEM leukemia, with HCT-15 colon, in the assay on HT29 colon, in the assay with MCF7 breast and in the assay on MDA-MB-435 was > 2500 µM each time. The TGI in the assay with PC-3 prostate, in the assay on SF-539 CNS, with SK-MEL-28 melanoma and in the assay with T-47D breast was > 2500 µM each time.

For `Clc1nc(Cl)c2ncn(C/C=C/Cn3cnc4c(Cl)nc(Cl)nc43)c2n1`, the GI50 is 16.7 µM with BT-549 breast; 10.7 µM in the assay on CCRF-CEM leukemia; 16.1 µM in the assay on HCT-15 colon; 14.7 µM in the assay with HT29 colon; 6.69 µM with MCF7 breast; 19.8 µM in the assay with MDA-MB-435. Also, the GI50 is 17.5 µM in the assay with PC-3 prostate, 21.3 µM with SF-539 CNS, 17.5 µM in the assay with SK-MEL-28 melanoma and 11.2 µM with T-47D breast. In addition, the TGI with BT-549 breast amounted to 31.3 µM; with CCRF-CEM leukemia it was 25.3 µM; in the assay with HCT-15 colon it was 30.2 µM; in the assay with HT29 colon, 29.9 µM; in the assay on MCF7 breast, 21.6 µM; in the assay with MDA-MB-435 it was 39.4 µM. Moreover, the TGI in the assay on PC-3 prostate came to 33.2 µM; with SF-539 CNS, 41 µM; in the assay with SK-MEL-28 melanoma, 33 µM; with T-47D breast, 32 µM.

Consider `COc1ccc(S(=O)(=O)NC2=NCCN2C(=S)SN2CCn3c2nsc3=S)cc1OC`, for which the GI50 is 30.9 µM in the assay on BT-549 breast; 11.3 µM with CCRF-CEM leukemia; 26.2 µM in the assay with HCT-15 colon; 25.7 µM in the assay on HT29 colon; 15.7 µM in the assay with MCF7 breast; 19.8 µM in the assay on MDA-MB-435. Also, the GI50 in the assay with PC-3 prostate was 27.1 µM; in the assay with SF-539 CNS, 34.3 µM; in the assay with SK-MEL-28 melanoma, 16.5 µM; in the assay with T-47D breast it was 15.3 µM. For the same compound, the TGI in the assay with BT-549 breast is > 100 µM; in the assay on CCRF-CEM leukemia, 30.9 µM; with HCT-15 colon, > 100 µM; in the assay with HT29 colon it was 94.4 µM; in the assay with MCF7 breast, 35.7 µM; in the assay on MDA-MB-435, 44.1 µM. Further, the TGI with PC-3 prostate was 94 µM; with SF-539 CNS, > 100 µM; in the assay on SK-MEL-28 melanoma, 37.5 µM; in the assay with T-47D breast, 35.3 µM.
